PMC7785802, “Therapeutic Efficacy of a Trichinella Spiralis Paramyosin-Derived Peptide Modified With a Membrane-Targeting Signal in Mice With Antigen-Induced Arthritis” (Frontiers in Microbiology, 2020)

Experiments:
[1] = test system: normal mouse knee joint cavity; experiment: Peptide retention in normal mouse joint cavities (immunofluorescence); assay type: in vivo; details: biotin-labeled peptide, 10 μg in 10 μl PBS intraarticular, normal mice; for staining of joint cavity after intraarticular injection: 12, 24, 48 h, streptavidin-FITC, one mouse per time point
Description: As previous studies reported, immunofluorescence assay was used to assess the retention time of the peptides in normal mouse joint cavities (Williams et al., [2004]). The normal mice were divided into original and modified peptide groups and treated with the corresponding peptides [10 μg in 10 μl PBS by intraarticular (IA) injection respectively. At 12, 24, and 48 h after injection, a single mouse from each group was randomly chosen and sacrificed under anesthesia (1% sodium pentobarbital, 50 mg/kg)]. Knee joints were dissected, fixed in 4% paraformaldehyde, and decalcified with decalcification solution (0.5 M EDTA, pH 8.0) before embedding in paraffin. Midsagittal serial sections (7 μm in thickness) were cut and peptide retention was assessed using streptavidin-FITC (eBioscience) (1:100 in PBS) followed by fluorescent microscopy (Leica).
Figure 4 Retention time of the modified peptide in the joint cavities was prolonged. The biotin-labeled original or modified peptide was injected into the knee joint and then the knee joints were dissected at 12, 24, and 48 h and probed with streptavidin-FITC in immunofluorescence assays.

[2] = test system: mice with antigen-induced arthritis (AIA); experiment: Knee joint swelling in antigen-induced arthritis (AIA); assay type: in vivo, mouse; details: 40 μg peptide + 25 μg mBSA in 10 μl PBS intraarticular; days 2, 3 and 4 after induction; n = 6; **p < 0.01
Description: (§1) AIA was induced in male C57BL/6J wildtype mice (8–10 weeks of age) according to a previously described protocol (Ebbinghaus et al., [2017]) with minor modifications. Briefly, the mice were intraperitoneally injected with 200 ng pertussis toxin (List Biological Laboratories, California, USA) prior to being subcutaneously immunized with 100 μg methylated bovine serum albumin (mBSA; Sigma-Aldrich, St. Louis, Missouri, USA) emulsified in Freund's complete adjuvant (Sigma-Aldrich). The immune response was boosted with identical subcutaneous mBSA immunizations at 14 and 21 days after the first immunization. At 28 days after the initial immunization, the right knee joint of each mouse was intraarticularly injected with 10 μl PBS as the control, while the left knee joint received either 10 μl PBS only (normal group), 25 μg mBSA (to induce AIA) in 10 μl PBS (AIA-only group), 40 μg modified peptide with 25 μg mBSA in 10 μl PBS (modified peptide+AIA group), or 40 μg original peptide with 25 μg mBSA in 10 μl PBS (original peptide+AIA group). Every day after AIA induction (and intraarticular peptide treatment), the difference in the joint diameter (swelling in mm) between the right and left knee joints in each mouse was assessed using a digital micrometer to evaluate the AIA severity. Each joint was measured three times and the mean diameter was calculated and recorded. […]

[3] = test system: mice with antigen-induced arthritis (AIA); experiment: Histology (HE) of AIA knee joints; assay type: in vivo, mouse; details: for synovial histology (HE): 40 μg peptide + 25 μg mBSA intraarticular, day 3 post-AIA induction, n = 6
Description: as §1
To assess the therapeutic effects of the peptides on AIA, the mice were euthanized on day 3 post-AIA induction. […] The degree of histopathologic tissue damage was quantified using the following previously described cumulative score for evaluating disease severity (Durigutto et al., [2013]). […] Additionally, according to the immunofluorescence protocol, tissue deposition of MAC was assessed by immunofluorescence assay with incubating rabbit anti-mouse C9 IgG (Sigma-Aldrich) at a 1:200 dilution overnight at 4°C followed by incubation with FITC-labeled goat anti-rabbit IgG (DAKO, Glostrup, Denmark) at a 1:200 dilution for an additional 60 min at room temperature (Lei et al., [2020]). […]

[4] = test system: membrane attack complex (MAC); experiment: MAC (C9) deposition in AIA knee joints (immunofluorescence); assay type: in vivo; details: 40 μg peptide + 25 μg mBSA intraarticular; day 3 post-AIA induction; anti-mouse C9 immunofluorescence; n = 6
Description: as §1, with “At 28 days after the initial immunization, the right knee joint of each mouse was intraarticularly injected with 10 μl PBS as the control, while the left knee joint received either 10 μl PBS only (normal group), 25 μg mBSA (to induce AIA) in 10 μl PBS (AIA-only group), 40 μg modified peptide with 25 μg mBSA in 10 μl PBS (modified peptide+AIA group), or 40 μg original peptide with 25 μg mBSA in 10 μl PBS (original peptide+AIA group).” left out
To assess the therapeutic effects of the peptides on AIA, the mice were euthanized on day 3 post-AIA induction. […] The degree of histopathologic tissue damage was quantified using the following previously described cumulative score for evaluating disease severity (Durigutto et al., [2013]). […]

[5] = test system: C9 / MAC; details: previous study; ref Zhao et al., 2014; cited from earlier work
From the text: Paramyosin, a dimeric fibrillar protein, not only forms the thick myofilaments of invertebrate muscle, but also occurs on the surface of helminths and serves as a potential modulator of the host immune system by interacting with human collagen, calgranulin and so on (Zhao et al., [2014]).

Substance | staining of joint cavity after intraarticular injection [1] | retention time on synovial lining ([1]; 48 h is last time point) [h] | joint swelling (left vs right knee diameter) compared to AIA-only mice [2] | synovial histology (HE) [3] | histopathological scores ([3]; 40 μg peptide intraarticular at the time of AIA induction, cumulative score (synovial hyperplasia, leukocyte infiltration, fibrosis), no numbers given) | MAC deposition in synovial connective tissue [4] | inhibition of MAC assembly [5]
Myr-GSSKSPSKKKKKKPG-ACP-VSMGKSLSSKVYVM [modified peptide, Ts-pmy-derived peptide modified with a membrane-targeting signal] | intense staining along the synovial lining even at 48 h after injection | ≥ 48 | significant reductions in joint swelling on days 2, 3, and 4 after disease induction | milder synovial hyperplasia and inflammatory cell infiltration compared to the AIA-only or original peptide+AIA mice | significantly decreased | significantly weaker | 
VSMGKSLSSKVYVM [original peptide, tetradecapeptide derived from Trichinella spiralis paramyosin (Ts-pmy)] | no staining |  |  | severe edema, hyperplasia, and inflammatory cell infiltration compared to normal joints |  | clearly detected | inhibited the assembly of MAC
